Legend:
hPD-L1-eGFP = target: T1, hPD-L1-eGFP (Homo sapiens, UniProt Q9NZQ7); assay: Microscale thermophoresis (MST) PD-L1 binding assay; conditions: CHO-K1 cell lysate, hPD-L1-eGFP 35 nM, PBS-T buffer (0.05% Tween 20)
T1 construct: expressed in transfected cells; host or cells: CHO-K1 (cell lysate used)
From the text: The quantity of cells for this protocol can vary from 10 to 40 million. […] Different types of additives such as Tween 20, various MgCl2 concentrations, BSA have been tested to avoid sample aggregation and different types of capillaries have been investigated to reduce the adsorption within capillaries. Various buffers have also been tested and are listed in the related section. The fluorescence measurement is made using a small quantity of cell lysate within a capillary chosen among different available capillaries: standard, premium, hydrophilic or hydrophilic. The highest concentration of ligand must be at least 20 times higher than the expected dissociation constant of the interaction under study. However, the lowest concentration of ligand must be lower than the concentration of the fluorescent protein. An online tool created by NanoTemper® can be used and allows determining the range of ideal concentration. The concentration of the fluorescent protein can be determined using a GFP dosage kit (Abnova KA0911) or a calibration curve.
CHO-K1 cells were transfected with the Cell Line Nucleofector® Kit T, Program U-023 and the pcDNA 3.1 hygro plasmid expressing PD-1-eGFP. 2 µg of plasmid was transfected in one million CHO-K1 cells suspended in 100 µL Nucleofector solution. Cells were analyzed 48 hours post Nucleofection® by flow cytometry. Cells are put under the appropriate selective pressure which will only allow growth of cells containing the DNA insert. After three weeks of selective pressure, the multiparametric analysis of transfected CHO-K1 cells over-expressing mPD-1-eGFP allows defining sub-populations which can be separated from the global population. The population of cells strongly expressing eGFP is analyzed by flow cytometry and kept for MicroScale Thermophoresis analysis. The exact same protocol from transfection to cytometry analysis is lead on CHO-K1 cells expressing the hPD-L1-eGFP protein.
MST was used to establish the binding affinity between PD-L1-eGFP and Compounds. Cell lysate was diluted in PBS-T buffer (0.05% Tween 20) to a final concentration at which the fluorescent signals of the GFP proteins were similar and above the typical detection limit of the Monolith NT.115 instrument (NanoTemper Technologies). […] For the binding between hPD-L1-eGFP with compounds, several dilutions were made between 1mM to 1 nM to cover a wide concentration range. Ten microliters of cell lysate are added to 10 µL of each ligand solution. Nivolumab was taken as reference.

[1] = target: T2, interaction between PD-1 and PD-L1 (Homo sapiens, UniProt Q9NZQ7); assay: FRET assay (PD-1-YFP / SHP-2-CFP in CHO-K1 cells, activation with PD-L1); type: cell-based; conditions: co-transfected PD-1-SHP2 CHO-K1 cells, after addition of PD-L1 (10 µM)
T2 construct: expressed in transfected cells; host or cells: CHO-K1 co-transfected with PD-1-YFP and SHP-2-CFP
T2 sequence (Q9NZQ7 19-238 limits assumed): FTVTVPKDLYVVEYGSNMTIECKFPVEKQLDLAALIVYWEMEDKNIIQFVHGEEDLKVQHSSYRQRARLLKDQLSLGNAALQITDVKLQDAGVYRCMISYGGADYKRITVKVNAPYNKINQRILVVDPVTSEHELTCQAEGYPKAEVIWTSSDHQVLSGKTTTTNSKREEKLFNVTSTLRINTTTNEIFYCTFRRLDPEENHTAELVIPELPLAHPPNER
From the text: Energy transfer between fluorescent molecules (FRET) is a technique that allows visualizing interactions between 2 fluorescent molecules. A fluorescent molecule, called "donor", will transfer its energy, once excited, to another fluorescent molecule called "acceptor". The fluorescence of the donor decreases while the acceptor's one increases (see Figure 1).
A model was developed using CHO-K1 cells involving overexpression of proteins of interest. It involves the expression of a PD-1-YFP fluorescent protein and a second fluorescent protein SHP-2-CFP (phosphatase recruited during the interaction between PD-1 and PD-L1).
A Spectramax i3 is configured according to the selected fluorochromes with their excitation and emission spectra. Endpoint reading is performed, at the center of the well; the reading time is 2 minutes for a 96-well plate.
For this test, a 96-well flat-bottomed white plate is required. All mixes introduced into the plate are made of triplicate. The negative control is provided by the CHO transfected by the void plasmid, the positive control is provided by CHO transfected with a plasmid containing the YFP-CFP fusion protein making it possible to mimic the FRET phenomenon. […] It is also necessary to remove the background noise, that is to say the FRET without activation with PD-L1. […] Nivolumab was taken as positive control of interaction's inhibitions.

[2] = In vitro spread test (CFSE CellTrace cell proliferation, flow cytometry); type: cell-based; conditions: IC50 of proliferation, flow cytometry D0 to D3
From the text: The CellTrace™ Cell Proliferation Kits provide versatile and well-retained cell tracing reagents in a convenient and easyto-use form. Each kit contains a CellTrace™ reagent in single-use vials to permit small scale experiments without preparing excess quantities of stock solution. The CellTrace™ reagents readily diffuse into cells and bind covalently to intracellular amines, resulting in stable, well-retained fluorescent staining that can be fixed with aldehyde fixatives. Excess unconjugated reagent passively diffuses to the extracellular medium, where it can be quenched with complete media and washed away. The kit is supplied by ThermoFisher Scientific.
• 1. Number of days on which the manipulation is done: 3 (from D0 to D3: 4 passages in cytometry) • 2. Volume of cell suspension needed: 2.5ml (0.5ml / day) • 3. Number of cells needed: 2.5mlx0.5M / ml = 1.25M per cell line. • 4. Number the cells and check their viability. • 5. Prepare the desired number of cells. • 6. Centrifuge, resuspend at a 1M/mL concentration in PBS (the probe binds to the proteins of the medium) • 7. Add 0.5µM of CellTrace (dilute 1/10 of the stock solution, add 1 / 1000th in the PBS-cell mix: take 1µl of probe at the main concentration, add 9µL of PBS) • 8. Incubate for 20 minutes at 37 ° C in the dark. • 9. Add 5 volumes of medium to capture the excess of probe (1.2x5 = 6ml) • 10. Incubate for 5 minutes at 37 ° C. • 11. Centrifuge, resuspend the cells at the desired concentration of 0.5M / ml in preheated medium. Plate 24 wells. • 12. Establish the J0 at least 5h after marking. • 13. Flow cytometry is then performed to evaluate cell division and to determine an IC50 of proliferation using Graphpad.

T1 sequence (Q9NZQ7 19-290): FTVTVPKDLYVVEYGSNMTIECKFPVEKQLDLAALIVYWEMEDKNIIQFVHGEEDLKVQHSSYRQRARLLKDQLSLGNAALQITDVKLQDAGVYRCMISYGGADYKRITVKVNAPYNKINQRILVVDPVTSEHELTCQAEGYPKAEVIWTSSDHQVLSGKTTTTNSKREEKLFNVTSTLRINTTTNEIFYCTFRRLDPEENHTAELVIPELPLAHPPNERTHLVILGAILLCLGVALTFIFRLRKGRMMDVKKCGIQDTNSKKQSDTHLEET

Row | Kd (hPD-L1-eGFP) [nM] | IC50 [1] [nM] | SMILES | In vitro spread test [2] | IC50 [2] [nM]
1 | 68000 ± 7000 | 51000 ± 3000 | COc1ccc(C2=NN(c3ccc(Cl)cc3Cl)C(=O)C2)cc1 [ALIPX05, 1-(2,4-Dichlorophenyl)-3-(4-methoxyphenyl)-4,5-dihydro-1H-5-pyrazolone] |  | 
2 | 375 ± 43 | 230 ± 35 | COc1ccc(C2=NN(c3ccc(OC)cc3)C(=O)C2)cc1 [ALIPD24, 1-(4-methoxyphenyl)-3-(4-methoxyphenyl)-4,5-dihydro-1H-5-pyrazolone] | No effect | 
3 | 83 | 17 | COc1ccc(C2=NN(c3ccccn3)C(=O)C2)cc1 [ALIPD19, 3-(4-Methoxyphenyl) -1-(pyridin-2-yl)-4,5-dihydro-1H-5-pyrazolone] |  | 75
4 | 340 ± 27 | 4 ± 2 | O=C1CC(C23CC4CC(CC(C4)C2)C3)=NN1c1ccccn1 [ALIPX57, 3-(Adamantan-1-yl)-1-(pyridin-2-yl)-4,5-dihydro-1H-5-pyrazolone] |  | 192
5 | 1200 | 1100 | O=C1CC(c2cccc(C(F)(F)F)c2)=NN1c1ccccn1 [ALIPD58, 1-(2-pyridyl)-3-[3-(trifluoromethyl)phenyl]-4,5-dihydro-1H-5-pyrazolone] |  | 
6 | 212 ± 23 | 196 ± 17 | COc1ccc(C2=NN(c3ccc(Cl)cc3Cl)C(=O)C2)cc1OC [ALIPD52, 1-(2,4-Dichlorophenyl)-3-(3,4-dimethoxyphenyl)-4,5-dihydro-1H-5-pyrazolone] |  | 
7 | 18000 ± 3000 | 15000 ± 5000 | COc1ccc(C2=NN(c3cc(Cl)cc(Cl)c3)C(=O)C2)cc1 [ALIPX02, 1-(3,5-Dichlorophenyl)-3-(4-methoxyphenyl)-4,5-dihydro-1H-5-pyrazolone] |  | 
8 | 23 | 7 | COc1ccccc1C1=NN(c2ccccn2)C(=O)C1 [ALIPD60, 3-(2-methoxyphenyl)-1-(2-pyridyl)-4,5-dihydro-1H-5-pyrazolone] |  | 
9 | 72000 ± 17000 | 43000 ± 6000 | O=C1CC(c2ccc([N+](=O)[O-])cc2)=NN1c1ccc(Cl)cc1Cl [ALIPD33, 1-(2,4-Dichlorophenyl)-3-(4-nitrophenyl)-4,5-dihydro-1H-5-pyrazolone] |  | 
10 | 890 ± 75 | 785 ± 87 | O=C1CC(C23CC4CC(CC(C4)C2)C3)=NN1c1cc(Cl)cc(Cl)c1 [ALIPD28, 3-(Adamantan-1-yl)-1-(3,5-dichlorophenyl)-4,5-dihydro-1H-5-pyrazolone] |  | 
11 | 27000 ± 5000 | 33000 ± 7000 | O=C1CC(c2ccc(Cl)cc2)=NN1c1ccccn1 [ALIPD59, 3-(4-chlorophenyl)-1-(2-pyridyl)-4,5-dihydro-1H-5-pyrazolone] |  | 
12 | 110 ± 17 | 98 ± 12 | O=C1CC(c2ccc(Cl)cc2Cl)=NN1c1ccccn1 [ALIPD26, 3-(2,4-Dichlorophenyl)-1-(pyridin-2-yl)-4,5-dihydro-1H-5-pyrazolone] |  | 

Row | SMILES | Kd (hPD-L1-eGFP) [nM] | IC50 [1] [nM] | In vitro spread test [2] | IC50 [2] [nM]
13 | O=C1CC(C2CCCCCC2)=NN1c1ccc(Cl)cc1Cl | 80000 ± 12000 | 67000 ± 9000 |  | 
14 | O=C1CC(c2ccccc2)=NN1c1ccc(Cl)cc1Cl | 14000 ± 3000 | 9000 ± 5000 |  | 
15 | COc1ccc(C2=NN(c3cc(Cl)ccc3Cl)C(=O)C2)cc1 | 8000 ± 2000 | 12000 ± 3000 |  | 

Reference: patent publication EP3766544A1 (Centre Hospitalier Regional Universitaire de Lille, priority 2019, dated 2021)
